Test results from patent US8962688B2, “Method for the treatment of gastrointestinal disorders” (Sucampo AG, priority 2005, dated 2015).

Legend:
[1] = tested on: rabbit platelet aggregation induced with ADP; experiment: Rabbit platelet aggregation induced with ADP; type: cell-based; conditions: for % Inhibition / Maximum aggregation: 10^−7 g/mL, platelet-rich plasma; for Maximum aggregation: mean ± SE, n=3; for Effect on the platelet aggregation: result in words, summary of Table 3
Description: Blood was collected from rabbits of the JW/CSK strain and citrated by mixing with sodium citrate in a ratio of 9 volumes of blood to 1 volume of 3.8% sodium citrate solution. Platelet-rich plasma (PRP) was obtained by centrifugation of the citrated blood at 1000 rpm (168×g) for 10 minutes. After collection of PRP, residual blood was further centrifuged at 3000 rpm (1670×g) for 15 minutes, and the supernatant was used as platelet-poor plasma (PPP). After pre-incubation of PRP (200 μL) with each test solution (25 μL) for 1 minutes at 37° C., 25 μL of platelet aggregation agent (ADP […]) was added. Platelet aggregation was measured with a platelet aggregation meter (HEMATRACER PAT-4A, Niko Bioscience, Inc.). Each test solution was examined with 3 different animal source platelets in duplicate fashion. Inhibition percent was calculated by comparing with the maximal aggregation with the saline-treatment group.

[2] = tested on: gastric ulcer induced by water-immersion stress; experiment: Gastric ulcer induced by water-immersion stress (5 hours) in rats, single and combined treatment; type: in vivo, rat; conditions: for Inhibition of the gastric ulcer: result in words, summary of Table 4
Description: Wistar rats were used after an overnight fast with free access to water. Compound 1 (13,14-dihydro-15-keto-16,16-difluoro-PGE1) or Compound 2(13,14-dihydro-15-keto-16,16-difluoro-18(s) methyl-PGE1) was orally administered to the animals. When the effect of combined treatment with Compound 1 and proton pump inhibitor (lansoprazole or omeprazole) was evaluated, Compound 1 and proton pump inhibitor were orally administered simultaneously. Control group received the same volume of the vehicle. Ten minutes after the administration, the animals were placed in stress cages and were vertically immersed to the xiphoid process in a water bath maintained at 23° C. Five hours later, each animal was taken out from the cage and sacrificed by CO2 asphyxiation. The stomach was removed after ligating the cardiac region of stomach and the upper part of duodenum. The stomach was filled with 4 mL of physiological saline solution, and fixed in 1% formalin solution for 30 minutes. The stomach was opened along the greater curvature. The length (mm) of the individual ulcer was measured and the ulcer index was expressed as the sum of the lengths of all ulcers per stomach.

[3] = tested on: indomethacin-induced stomach ulcers; experiment: Indomethacin-induced stomach ulcers in rats; type: in vivo, rat
Description: Each group of test animals used consisted of 10 male rats of the Crj: Wistar strain. The animals were fasted for 24 hours before the oral administration of the Compound 1 (13,14-dihydro-15-keto-16,16-difluoro-PGE1) or the vehicle. Ten minutes after the oral administration of the test sample or the vehicle, all rats received a 20 mg/kg oral dose of indomethacin. The animals were euthanized 6 hours later. The stomach was removed and the length of the longest axis of each stomach ulcer was measured. The ulcer index was calculated as the sum of the lengths of each individual ulcer.

[4] = tested on: stress-induced stomach ulcers; experiment: Stress-induced (water immersion, 6 hours) stomach ulcers in rats; type: in vivo, rat; conditions: for Ulcer index (sum of lengths of each individual ulcer): mean ± SE
Description: Each group of test animals used consisted of 9 or 10 male rats of the Crj: Wistar strain. The animals were fasted for 24 hours before the oral administration of the test sample. Ten minutes after the oral administration of various doses of the Compound 1 (13,14-dihydro-15-keto-16,16-difluoro-PGE1) or the vehicle, each animal was put in a narrow cage, and was immersed in water (23° C.) up to the height of the xipoid process for 6 hours. The animals were then euthanized. The stomach was removed and the maximum length of the longest axis of each stomach ulcer was measured. The ulcer index was calculated as the sum of lengths of each individual ulcer.

[5] = tested on: total acid output; experiment: Total gastric acid output in pylorus-ligated rats; type: in vivo, rat; conditions: oral, 30 min before pyloric ligation; 4 hours output; compared to vehicle-treated control (FIG. 1)
Description: The study was conducted according to the method described by Wong et al (Pharmacol. Soc. 32:49-56, 1989). Each group of test animals used consisted of 6 male rats of the Crj: Wistar strain. The animals were fasted for 24 hours with free access to water. Each dose formulation of Compound 1 (13,14-dihydro-15-keto-16,16-difluoro-PGE1), saline and medium chain fatty acid triglyceride (MCT) was orally administered 30 minutes before pyloric ligation. For positive control, the animals were received pentagastrin, a known gastric acid stimulator, subcutaneously at 2000 μg/kg. Under ether anesthesia, the abdomen was opened through a midline incision, the pylorus ligated with 3-0 silk suture, and the abdomen closed. The animals were kept without diet and water thereafter. Four hours after pyloric ligation, the animals were euthanized by cervical dislocation and the abdomen opened. The gastric contents were collected into sterile centrifuge tubes, and centrifuged at 3000 rpm for 10 minutes to remove solid materials. The supernatant was collected and the volume measured. A 1 mL aliquot of each gastric fluid sample was titrated to pH 7.0 with 0.01 N sodium hydroxide using an automatic […], Co., Ltd., Japan) to determine the acidity (mEq H^+/mL) Total output of gastric acid for 4 hours was calculated

| SMILES | % Inhibition [1] [%] | Maximum aggregation [1] [%] | Effect on the platelet aggregation [1] | Inhibition ([2]; 10 μg/kg p.o.) [%] | Ulcer Index Mean ± S.E. ([2]; 10 μg/kg p.o.) [mm] | Inhibition ([2]; 30 μg/kg p.o.) [%] | Ulcer Index Mean ± S.E. ([2]; 30 μg/kg p.o.) [mm] | Inhibition ([2]; 100 μg/kg p.o.) [%] | Ulcer Index Mean ± S.E. ([2]; 100 μg/kg p.o.) [mm] | Inhibition of the gastric ulcer [2] | other results |
| --- | --- | --- | --- | --- | --- | --- | --- | --- | --- | --- | --- |
| CCCCC[C@H](O)/C=C/[C@H]1[C@H](O)CC(=O)[C@@H]1CCCCCCC(=O)O [PGE1, prostaglandin E1, reference compound] | 73 | 23.3 ± 1.9 | significantly inhibited |  |  |  |  |  |  |  |  |
| COc1ccc2[nH]c([S+]([O-])Cc3ncc(C)c(OC)c3C)nc2c1 (stereo not shown) [Omeprazole, omeprazole, reference compound] |  |  |  |  |  |  |  |  |  |  | Ulcer Index Mean ± S.E. ([2]; Omeprazole 3000 μg/kg p.o. alone): 5.9 ± 0.9 mm; inhibition at 3 mg/kg ([2]; Rattus norvegicus, po, Omeprazole 3000 μg/kg p.o. alone): 31% |
| CCCCC(F)(F)C(=O)CCC1C(O)CC(=O)C1CCCCCCC(=O)O (stereo not shown) [Compound 1, 13,14-dihydro-15-keto-16,16-difluoro-PGE1] | 0 | 49.5 ± 2.5 | no effect | 23 | 12.2 ± 1.9 | 36 | 10.1 ± 1.6 | 91 | 1.4 ± 0.6 | dose-dependent manner | Ulcer index (sum of lengths of each individual ulcer) ([3]; 2 μg/kg po, 10 min before indomethacin 20 mg/kg po, mean ± SE): 27.9 ± 5.1; % Inhibition ([3]; 2 μg/kg po, versus vehicle control): 44%; Protection against indomethacin-induced ulcer formation ([3]; result in words, summary of Table 1): significant protection; % Inhibition ([4]; 3 μg/kg po): 9.2%; Ulcer index (sum of lengths of each individual ulcer) ([4]; 3 μg/kg po): 26.6 ± 3.7; % Inhibition ([4]; 10 μg/kg po): 20.1%; Ulcer index (sum of lengths of each individual ulcer) ([4]; 10 μg/kg po): 23.4 ± 4.7; % Inhibition ([4]; 30 μg/kg po): 54.3%; Ulcer index (sum of lengths of each individual ulcer) ([4]; 30 μg/kg po): 13.4 ± 2.0; % Inhibition ([4]; 100 μg/kg po): 85.3%; Ulcer index (sum of lengths of each individual ulcer) ([4]; 100 μg/kg po): 4.3 ± 1.9; Protection against stress-induced ulcer formation ([4]; result in words, summary of Table 2): protection significantly; Effect on total acid output [5]: did not affect |
| CC[C@H](C)CC(F)(F)C(=O)CC[C@H]1[C@H](O)CC(=O)[C@@H]1CCCCCCC(=O)O [Compound 2, 13,14-dihydro-15-keto-16,16-difluoro-18(s) methyl-PGE1] |  |  |  | 21 | 12.6 ± 2.2 | 36 | 10.2 ± 2.0 | 85 | 2.4 ± 0.9 | dose-dependent manner |  |
| Cc1c(OCC(F)(F)F)ccnc1C[S+]([O-])c1nc2ccccc2[nH]1 (stereo not shown) [Lansoprazole, lansoprazole, reference compound] |  |  |  |  |  |  |  |  |  |  | Ulcer Index Mean ± S.E. ([2]; Lansoprazole 1000 μg/kg p.o. alone): 4.6 ± 1.2 mm; inhibition at 1 mg/kg ([2]; Rattus norvegicus, po, Lansoprazole 1000 μg/kg p.o. alone): 46% |
